From ChEMBL document CHEMBL1201862, “PubChem BioAssay data set” (2004)
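Cells were grown in 96-well plates and exposed to each compound for 48 hours at five concentrations; endpoints were interpolated linearly between bracketing concentrations, or set to the highest concentration if not reached. GI50 is the concentration that inhibits growth by half.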 Active and inactive are the calls of the source. Cut-off read from the data, not from the text of the source: active = GI50 up to about 1.1 µM and inactive = higher.

Legend:
Assay in all cases: inhibition of tumour cell growth, NCI panel, 48 h
HL-60 = test system: HL-60
M14 = test system: M14
HCT-15 = test system: HCT-15
786-0 = test system: 786-0
CAKI-1 = test system: CAKI-1
SK-MEL-28 = test system: SK-MEL-28
A549 = test system: A549
HOP-62 = test system: HOP-62
HCT-116 = test system: HCT-116
A498 = test system: A498
NCI-H226 = test system: NCI-H226
ACHN = test system: ACHN
OVCAR-8 = test system: OVCAR-8
NCI-H522 = test system: NCI-H522
HOP-92 = test system: HOP-92

Measured: GI50

COC(=O)Cc1cc(=O)n2c3ccccc3n(C)c2c1C#N
> 100 µM: HCT-15
inactive: HL-60 > 100 µM | M14 > 100 µM | 786-0 > 100 µM | CAKI-1 > 100 µM | SK-MEL-28 > 100 µM | A549 > 100 µM | HOP-62 > 100 µM | HCT-116 > 100 µM | A498 > 100 µM | NCI-H226 > 100 µM | ACHN > 100 µM | OVCAR-8 > 100 µM

[N-]=[N+]=NC(CBr)c1cn([C@H]2C[C@H](O)[C@@H](CO)O2)c(=O)[nH]c1=O (some centres not stated)
> 100 µM: HCT-15
inactive: HL-60 > 100 µM | M14 > 100 µM | 786-0 > 100 µM | CAKI-1 > 100 µM | NCI-H522 > 100 µM | SK-MEL-28 > 100 µM | A549 > 100 µM | HOP-62 > 100 µM | HCT-116 > 100 µM | NCI-H226 > 100 µM | HOP-92 > 100 µM | ACHN > 100 µM | OVCAR-8 > 100 µM

O=C(O)CNc1c2ccccc2[n+]([O-])c2ccccc12
inactive: HL-60 18.7 µM | M14 > 100 µM | 786-0 > 100 µM | CAKI-1 > 100 µM | NCI-H522 50.1 µM | SK-MEL-28 42.2 µM | A549 > 100 µM | HOP-62 > 100 µM | HCT-116 44.6 µM | A498 > 100 µM | NCI-H226 > 100 µM | ACHN 65.5 µM | OVCAR-8 78.7 µM
72.1 µM: HCT-15

CN1C(=O)C2C3C=C4c5ccccc5N(c5ccccc5)C4(C2C1=O)[C@H]1C(=O)N(C)C(=O)[C@@H]31 (some centres not stated)
inactive: HL-60 > 100 µM | M14 > 100 µM | 786-0 > 100 µM | NCI-H522 > 100 µM | SK-MEL-28 > 100 µM | A549 > 100 µM | HOP-62 > 100 µM | HCT-116 > 100 µM | A498 > 100 µM | NCI-H226 > 100 µM | HOP-92 > 100 µM | ACHN > 100 µM | OVCAR-8 > 100 µM

COc1ccc(N2C(=O)[C@@H](N=[N+]=[N-])[C@@H]2[C@H]2COC(C)(C)O2)cc1
> 100 µM: HCT-15
inactive: HL-60 > 100 µM | M14 > 100 µM | 786-0 > 100 µM | CAKI-1 > 100 µM | NCI-H522 > 100 µM | SK-MEL-28 > 100 µM | A549 > 100 µM | HOP-62 > 100 µM | HCT-116 > 100 µM | NCI-H226 > 100 µM | HOP-92 > 100 µM | ACHN > 100 µM | OVCAR-8 > 100 µM

N#CC(C(=O)CCCC(=O)Nc1ccc(Cl)cc1Cl)c1ccc(Cl)cc1 (configuration not stated)
> 100 µM: HCT-15
inactive: HL-60 > 100 µM | M14 > 100 µM | 786-0 > 100 µM | CAKI-1 > 100 µM | NCI-H522 > 100 µM | SK-MEL-28 > 100 µM | A549 > 100 µM | HOP-62 > 100 µM | HCT-116 > 100 µM | NCI-H226 > 100 µM | HOP-92 > 100 µM | ACHN > 100 µM | OVCAR-8 > 100 µM

CCOC(=O)N1C(c2ccccc2)C=CC(c2ccccc2)N1C(=O)OCC (configuration not stated)
> 100 µM: HCT-15
inactive: 786-0 > 100 µM | CAKI-1 > 100 µM | SK-MEL-28 > 100 µM | A549 > 100 µM | HOP-62 > 100 µM | HCT-116 > 100 µM | A498 > 100 µM | HOP-92 > 100 µM | ACHN > 100 µM | OVCAR-8 > 100 µM

COc1ccc(C(=O)C(C(=O)C(=O)Nc2nc3ccc(OC)cc3s2)c2ccc(OC)cc2)cc1 (configuration not stated)
inactive: HL-60 75.2 µM | M14 > 100 µM | 786-0 > 100 µM | CAKI-1 > 100 µM | SK-MEL-28 > 100 µM | A549 > 100 µM | HOP-62 > 100 µM | A498 > 100 µM | NCI-H226 > 100 µM | HOP-92 > 100 µM | ACHN > 100 µM | OVCAR-8 > 100 µM
> 100 µM: HCT-15

OCCc1cnco1
inactive: HL-60 > 100 µM | M14 > 100 µM | 786-0 > 100 µM | NCI-H522 > 100 µM | SK-MEL-28 > 100 µM | A549 > 100 µM | HOP-62 > 100 µM | HCT-116 > 100 µM | NCI-H226 > 100 µM | OVCAR-8 > 100 µM

Cn1nc(-c2ccccc2)c(C(=O)/C=C/c2ccc(Cl)cc2)c(N2CCOCC2)c1=O
active: CAKI-1 0.652 µM
2.74 µM: HCT-15
inactive: HL-60 1.85 µM | M14 3.98 µM | 786-0 2.87 µM | NCI-H522 2.43 µM | SK-MEL-28 2.58 µM | A549 3.89 µM | HOP-62 10.5 µM | HCT-116 1.85 µM | A498 4.22 µM | HOP-92 2.11 µM | ACHN 4.42 µM | OVCAR-8 4.13 µM

COc1ccc(C(=O)NCCN(C)C)c2nc3ccccc3nc12
3.66 µM: HCT-15
inactive: M14 5.37 µM | 786-0 9.06 µM | NCI-H522 11.7 µM | SK-MEL-28 5.89 µM | A549 4.93 µM | HOP-62 3.3 µM | HCT-116 2.24 µM | A498 4.21 µM | NCI-H226 3.48 µM | HOP-92 9.51 µM | ACHN 2.79 µM | OVCAR-8 4.3 µM

CC(N)Cc1ccc(C(=O)Cl)cc1 (configuration not stated)
> 100 µM: HCT-15
inactive: M14 > 100 µM | 786-0 > 100 µM | CAKI-1 > 100 µM | NCI-H522 > 100 µM | SK-MEL-28 > 100 µM | A549 > 100 µM | HOP-62 > 100 µM | HCT-116 > 100 µM | A498 > 100 µM | ACHN > 100 µM | OVCAR-8 > 100 µM

Nc1ncnc2c1ncn2C1OC(CSCC(F)(F)F)C(O)C1O (configuration not stated)
> 100 µM: HCT-15
inactive: HL-60 > 100 µM | M14 > 100 µM | 786-0 > 100 µM | CAKI-1 > 100 µM | NCI-H522 45 µM | SK-MEL-28 > 100 µM | A549 > 100 µM | HOP-62 > 100 µM | HCT-116 > 100 µM | NCI-H226 > 100 µM | HOP-92 > 100 µM | ACHN > 100 µM | OVCAR-8 > 100 µM

CN(C(=O)C12C3C4C1C1C2C3C41C(=O)N(C)C(C)(C)C)C(C)(C)C (configuration not stated)
inactive: HL-60 > 50 µM | M14 > 50 µM | 786-0 > 50 µM | CAKI-1 > 50 µM | NCI-H522 > 50 µM | SK-MEL-28 > 50 µM | A549 > 50 µM | HOP-62 > 50 µM | HCT-116 > 50 µM | A498 > 50 µM | HOP-92 > 50 µM | ACHN > 50 µM | OVCAR-8 > 50 µM
> 50 µM: HCT-15

c1ccc2cc3[s+]snc3cc2c1
> 100 µM: HCT-15
inactive: HL-60 > 100 µM | M14 > 100 µM | 786-0 > 100 µM | CAKI-1 > 100 µM | NCI-H522 > 100 µM | SK-MEL-28 > 100 µM | A549 > 100 µM | HOP-62 > 100 µM | HCT-116 > 100 µM | A498 > 100 µM | NCI-H226 > 100 µM | ACHN > 100 µM | OVCAR-8 > 100 µM
